We go through one compound from patent US20140134178A1, “PHOSPHORYLATION OF HISTONES AND USES THEREOF” (H. LEE MOFFITT CANCER CENTER AND RESEARCH INSTITUTE, priority 2012, published 2014).

The experiment deals with S. cerevisiae wildtype and H2BY40A mutants. The experiment can be described thus: Yeast spot growth assay on YPD plates with MMS. The format is cell-based, Saccharomyces cerevisiae. Particulars: in contrast to wild type cells, growth 72 h post-plating. How it is done:
Wt and H2BY40A mutants were serially diluted and spotted on YPD plates in the absence or presence of MMS and growth was assessed 72 h post-plating.
To test whether excess of histones interfere with the ability of cells to repair DNA damage, S. cerevisiae wildtype (Wt) and H2BY40A mutants were exposed to DNA alkylating agent Methylmethane sulphonate (MMS). MMS inhibits DNA replication by methylating adenine or guanine in the DNA to cause base mispairing and stalling of replication forks, until the mutated/alkylated bases are excised out and replaced with the normal bases by the DNA alkyl transferases or the nucleotide repair machinery. […] Rad53 is a functional homologue of human Chk1 and Chk2 in budding yeast. It not only senses DNA replication stress during S phase but also acts as a surveillance machinery to detect excess histones that are not packaged into chromatin and targets them for degradation.

SMILES strings stand for the structures. “Also recorded” adds a separate entry of the source.

As for `COS(C)(=O)=O` [MMS, Methylmethane sulphonate], the “sensitivity of H2BY40A mutants” value was “acute sensitivity; also recorded: marked sensitivity”.
